What was measured:
PI3K-delta = target: T1, PI3K-delta (Homo sapiens, UniProt O00329); assay: HTRF PI3K biochemical assay, delta isoform; settings: form screened (neutral or TFA salt) given, read-out: PI3Kdelta IC50
T1 construct: purchased Upstate; Millipore 14-604

PI3K-alpha = target: T2, PI3K-alpha (Homo sapiens, UniProt P42336); assay: HTRF PI3K biochemical assay, alpha isoform; settings: ratio PI3K-alpha IC50 value / PI3K-delta IC50 value
T2 construct: purchased Upstate; Millipore 14-602
T2 sequence (P42336 whole entry, canonical isoform): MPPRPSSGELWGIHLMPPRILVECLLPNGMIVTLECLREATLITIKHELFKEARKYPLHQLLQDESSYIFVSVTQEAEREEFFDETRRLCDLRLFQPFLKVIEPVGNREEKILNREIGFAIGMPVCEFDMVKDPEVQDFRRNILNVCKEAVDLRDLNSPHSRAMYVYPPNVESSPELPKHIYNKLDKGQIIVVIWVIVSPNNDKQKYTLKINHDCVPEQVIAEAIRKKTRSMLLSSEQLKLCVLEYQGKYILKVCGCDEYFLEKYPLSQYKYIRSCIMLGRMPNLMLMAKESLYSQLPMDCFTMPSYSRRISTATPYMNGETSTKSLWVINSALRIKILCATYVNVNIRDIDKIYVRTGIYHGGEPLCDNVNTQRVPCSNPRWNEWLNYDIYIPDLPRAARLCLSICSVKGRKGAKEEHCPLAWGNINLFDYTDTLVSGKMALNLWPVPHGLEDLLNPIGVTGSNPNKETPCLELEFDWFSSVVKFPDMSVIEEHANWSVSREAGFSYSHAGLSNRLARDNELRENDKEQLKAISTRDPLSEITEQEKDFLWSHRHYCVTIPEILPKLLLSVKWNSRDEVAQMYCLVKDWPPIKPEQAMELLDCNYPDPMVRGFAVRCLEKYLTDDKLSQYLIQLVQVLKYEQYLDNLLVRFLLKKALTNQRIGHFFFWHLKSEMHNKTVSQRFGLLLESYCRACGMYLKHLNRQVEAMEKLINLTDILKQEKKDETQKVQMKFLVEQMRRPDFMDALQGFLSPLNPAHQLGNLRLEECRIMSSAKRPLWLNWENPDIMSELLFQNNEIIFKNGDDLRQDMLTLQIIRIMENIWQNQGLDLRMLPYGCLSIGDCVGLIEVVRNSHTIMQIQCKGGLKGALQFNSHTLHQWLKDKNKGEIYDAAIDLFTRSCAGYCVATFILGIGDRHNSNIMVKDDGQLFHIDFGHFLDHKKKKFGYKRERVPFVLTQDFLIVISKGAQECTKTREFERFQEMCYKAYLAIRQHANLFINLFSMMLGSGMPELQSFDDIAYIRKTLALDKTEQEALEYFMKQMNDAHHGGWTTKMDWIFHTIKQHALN
T2 sequence (P27986 whole entry partner, canonical isoform): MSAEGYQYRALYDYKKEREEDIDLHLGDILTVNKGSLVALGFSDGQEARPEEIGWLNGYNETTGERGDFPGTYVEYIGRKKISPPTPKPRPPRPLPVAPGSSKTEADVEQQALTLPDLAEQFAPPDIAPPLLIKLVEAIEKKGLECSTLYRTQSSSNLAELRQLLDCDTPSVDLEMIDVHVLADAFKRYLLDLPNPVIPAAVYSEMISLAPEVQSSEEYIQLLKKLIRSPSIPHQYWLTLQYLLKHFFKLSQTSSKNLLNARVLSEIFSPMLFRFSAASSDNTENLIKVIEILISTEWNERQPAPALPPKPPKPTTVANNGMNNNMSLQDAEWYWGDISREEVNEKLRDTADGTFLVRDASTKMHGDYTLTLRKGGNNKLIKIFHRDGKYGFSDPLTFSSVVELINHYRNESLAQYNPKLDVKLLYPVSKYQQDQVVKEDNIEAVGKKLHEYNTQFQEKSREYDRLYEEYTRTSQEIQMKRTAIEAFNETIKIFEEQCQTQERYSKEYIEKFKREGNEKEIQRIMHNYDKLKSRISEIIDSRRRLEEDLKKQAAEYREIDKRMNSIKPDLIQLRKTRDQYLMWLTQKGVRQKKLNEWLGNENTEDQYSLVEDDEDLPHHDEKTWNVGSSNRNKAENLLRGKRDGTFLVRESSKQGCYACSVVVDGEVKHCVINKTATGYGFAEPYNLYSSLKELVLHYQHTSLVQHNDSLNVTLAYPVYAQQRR

T1 sequence (O00329 whole entry, canonical isoform): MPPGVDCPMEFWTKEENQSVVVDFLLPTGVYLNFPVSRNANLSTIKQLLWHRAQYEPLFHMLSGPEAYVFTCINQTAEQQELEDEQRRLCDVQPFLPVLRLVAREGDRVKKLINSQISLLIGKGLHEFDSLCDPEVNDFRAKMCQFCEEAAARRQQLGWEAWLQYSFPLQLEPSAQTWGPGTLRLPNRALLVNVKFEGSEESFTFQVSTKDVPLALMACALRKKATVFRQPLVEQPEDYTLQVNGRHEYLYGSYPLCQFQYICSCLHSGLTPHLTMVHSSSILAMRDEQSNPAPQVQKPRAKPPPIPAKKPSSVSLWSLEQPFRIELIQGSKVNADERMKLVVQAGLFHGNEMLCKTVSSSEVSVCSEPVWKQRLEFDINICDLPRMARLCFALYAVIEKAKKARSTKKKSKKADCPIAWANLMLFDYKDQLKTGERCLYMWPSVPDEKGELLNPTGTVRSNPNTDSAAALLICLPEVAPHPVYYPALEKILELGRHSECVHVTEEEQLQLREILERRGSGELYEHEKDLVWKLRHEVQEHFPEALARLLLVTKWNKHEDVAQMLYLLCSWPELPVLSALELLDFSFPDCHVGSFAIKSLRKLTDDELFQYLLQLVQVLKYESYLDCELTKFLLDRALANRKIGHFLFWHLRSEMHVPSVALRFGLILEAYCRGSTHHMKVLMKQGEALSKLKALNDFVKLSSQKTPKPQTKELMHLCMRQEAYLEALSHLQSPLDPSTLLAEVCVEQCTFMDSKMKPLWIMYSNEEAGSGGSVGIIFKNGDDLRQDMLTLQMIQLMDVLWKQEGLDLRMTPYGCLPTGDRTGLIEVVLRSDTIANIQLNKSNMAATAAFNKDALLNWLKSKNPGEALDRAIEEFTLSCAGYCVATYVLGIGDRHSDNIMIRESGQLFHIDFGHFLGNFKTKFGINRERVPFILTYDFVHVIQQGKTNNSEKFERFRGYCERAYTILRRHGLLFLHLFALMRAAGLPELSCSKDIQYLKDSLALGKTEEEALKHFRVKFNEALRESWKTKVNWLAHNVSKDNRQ
T1 sequence (P27986 whole entry partner, canonical isoform): as the sequence (P27986 whole entry partner, canonical isoform) above

| Structure (SMILES) | IC50 (PI3K-delta) [nM] | Selectivity versus PI3Kalpha (PI3K-alpha) |
| --- | --- | --- |
| CCn1c(C(=O)N(C)C)nc2c(N[C@H]3CCN(C(=O)C4CC4)C3)ncnc21 [Compound 6-5, 6-{[(3S)-1-(cyclopropylcarbonyl)pyrrolidin-3-yl]amino}-9-ethyl-N,N-dimethyl-9H-purine-8-carboxamide] | 800 | >10 |
| CCC(=O)N1CC(Nc2ncnc3c2nc(-c2cnn(CC)c2C)n3C)C1 [Compound 2-45, 8-(1-ethyl-5-methyl-1H-pyrazol-4-yl)-9-methyl-N-(1-propanoylazetidin-3-yl)-9H-purin-6-amine] | 57 | >10 |
| CCn1c(C(=O)N2CCCC2)nc2c(N[C@H]3CCN(C(=O)C4CC4)C3)ncnc21 [Compound 6-8, N-[(3S)-1-(cyclopropylcarbonyl)pyrrolidin-3-yl]-9-ethyl-8-(pyrrolidin-1-ylcarbonyl)-9H-purin-6-amine] | 72 | >10 |
| CCn1c(-c2cnc(C)nc2)nc2c(N[C@H]3CCN(C(=O)c4cnn(C)c4)C3)ncnc21 [Compound 2-73, 9-ethyl-N-{(3S)-1-[(1-methyl-1H-pyrazol-4-yl)carbonyl]pyrrolidin-3-yl}-8-(2-methylpyrimidin-5-yl)-9H-purin-6-amine] | 4.2 | >10 |
| CCn1c(-c2cnc3c(cnn3C)c2)nc2c(N[C@H]3CCN(C(=O)C4CC4)C3)ncnc21 [Compound 3-35, N-[(3S)-1-(cyclopropylcarbonyl)pyrrolidin-3-yl]-9-ethyl-8-(1-methyl-1H-pyrazolo[3,4-b]pyridin-5-yl)-9H-purin-6-amine] | < 1 | >10 |
| CCn1c(-c2cnc(C)nc2)nc2c(NC3CN(C(=O)C4CC4)CC3C(F)(F)F)ncnc21 (racemic) [Compound 3-22, N-[(3R,4S and 3S,4R)-1-(cyclopropylcarbonyl)-4-(trifluoromethyl)pyrrolidin-3-yl]-9-ethyl-8-(2-methylpyrimidin-5-yl)-9H-purin-6-amine] | 2.9 | >10 |
| CCn1c(-c2cnc(C)nc2)nc2c(N[C@H]3CCN(C(=O)C4(NC)CC4)C3)ncnc21 [Compound 2-82, 9-ethyl-N-[(3S)-1-{[1-(methylamino)cyclopropyl]car-bonyl}pyrrolidin-3-yl]-8-(2-methylpyrimidin-5-yl)-9H-purin-6-amine] | 21 | >10 |
| CCC(=O)N1CCC[C@H](Nc2ncnc3c2nc(-c2cnn(CC)c2C)n3C)C1 [Compound 2-46, 8-(1-ethyl-5-methyl-1H-pyrazol-4-yl)-9-methyl-N-[(3S)-1-propanoylpiperidin-3-yl]-9H-purin-6-amine] | 9.2 | >10 |
| CCC(=O)N1CC[C@H](Nc2ncnc3c2nc(-c2ccc4cn[nH]c4c2)n3C)C1 [Compound 3-6, (S)-1-(3-((8-(1H-indazol-6-yl)-9-methyl-9H-purin-6-yl)amino)pyrrolidin-1-yl)propan-1-one] | 1.6 | >10 |
| CCn1c(-c2cnc(C)nc2)nc2c(N[C@H]3CCN(C(=O)[C@@H]4CCOC4)C3)ncnc21 [Compound 2-40, 9-ethyl-8-(2-methylpyrimidin-5-yl)-N-{(3S)-1-[(3R)-tetrahydrofuran-3-ylcarbonyl]pyrrolidin-3-yl}-9H-purin-6-amine] | 1.6 | >10 |
| CCn1c(-c2cnc(C)nc2)nc2c(N[C@H]3CCN(C(=O)C4CC(C)(C)C4)C3)ncnc21 [Compound 2-59, N-{(3S)-1-[(3,3-dimethylcyclobutyl)carbonyl]pyrrolidin-3-yl}-9-ethyl-8-(2-methylpyrimidin-5-yl)-9H-purin-6-amine] | < 1 | >10 |
| CCn1c(-c2cnc(C)nc2)nc2c(N[C@H]3CCN(c4ccc(C)cn4)C3)ncnc21 [Compound 4-3, 9-ethyl-N-[(3S)-1-(5-methylpyridin-2-yl)pyrrolidin-3-yl]-8-(2-methylpyrimidin-5-yl)-9H-purin-6-amine] | 3.7 | >10 |
| CCn1ncc(-c2nc3c(N(C)[C@H]4CCN(C(=O)OC(C)(C)C)C4)ncnc3n2C)c1C [Compound 1-3, (S)-tert-butyl 3-((8-(1-ethyl-5-methyl-1H-pyrazol-4-yl)-9-methyl-9H-purin-6-yl)(methyl)amino)pyrrolidine-1-carboxylate] | 98 | >10 |
| CCC(=O)N1CC[C@H](Nc2ncnc3c2nc(-c2cnn(-c4ccccc4)c2C)n3C)C1 [Compound 3-11, 9-methyl-8-(5-methyl-1-phenyl-1H-pyrazol-4-yl)-N-[(3S)-1-propanoylpyrrolidin-3-yl]-9H-purin-6-amine] | < 1 | >10 |
| CCn1c(-c2cnc(OC)c(C)c2)nc2c(N[C@H]3CCN(C(=O)C4CC(F)(F)C4)C3)ncnc21 [Compound 3A-5, N-{(3S)-1-[(3,3-difluorocyclobutyl)carbonyl]pyrrolidin-3-yl}-9-ethyl-8-(6-methoxy-5-methylpyridin-3-yl)-9H-purin-6-amine] | < 1 | >10 |
| CCn1c(-c2cnc(C)nc2)nc2c(N[C@H]3CCN(c4ccc(C#N)cn4)C3)ncnc21 [Compound 4-11, 6-[(3S)-3-{[9-ethyl-8-(2-methylpyrimidin-5-yl)-9H-purin-6-yl]amino}pyrrolidin-1-yl]pyridine-3-carbonitrile] | 12 | >10 |
| CCn1c(-c2cnc(OC)c(F)c2)nc2c(N[C@H]3CCN(C(=O)c4cncn4C)C3)ncnc21 [Compound 3A-2, 9-ethyl-8-(5-fluoro-6-methoxypyridin-3-yl)-N-{(3S)-1-[(1-methyl-1H-imidazol-5-yl)carbonyl]pyrrolidin-3-yl}-9H-purin-6-amine] | < 1 | >10 |
| CCn1c(-c2cnc(C)nc2)nc2c(NC3(C)CCN(C(=O)C4CC4)C3)ncnc21 (racemic) [Compound 3-18, N-[(R and S)-1-(cyclopropylcarbonyl)-3-methylpyrrolidin-3-yl]-9-ethyl-8-(2-methylpyrimidin-5-yl)-9H-purin-6-amine] | 2.6 | >10 |

Next, values leading:

| IC50 (PI3K-delta) [nM] | Selectivity versus PI3Kalpha (PI3K-alpha) | Structure (SMILES) |
| --- | --- | --- |
| < 1 | >10 | CCn1c(-c2cnc(C)nc2)nc2c(N[C@H]3CCN(C(=O)N4CCC(C)(C)C4)C3)ncnc21 [Compound 12-11, N-{(3S)-1-[(3,3-dimethylpyrrolidin-1-yl)carbonyl]pyrrolidin-3-yl}-9-ethyl-8-(2-methylpyrimidin-5-yl)-9H-purin-6-amine] |
| 13 | >10 | CCn1c(-c2cnc(C)nc2)nc2c(N[C@H]3CCN(C(=O)NC(C)C)C3)ncnc21 [Compound 12-19, (3S)-3-{[9-ethyl-8-(2-methylpyrimidin-5-yl)-9H-purin-6-yl]amino}-N-(1-methylethyl)pyrrolidine-l-carboxamide] |
| 14 | >10 | CCC(=O)N1CC[C@H](Nc2ncnc3c2nc(C(F)(F)F)n3CC)C1 [Compound 7-11, 9-ethyl-N-[(3S)-1-propanoylpyrrolidin-3-yl]-8-(trifluoromethyl)-9H-purin-6-amine] |
| 1.9 | >10 | CCn1c(-c2cnc(C)nc2)nc2c(N[C@H]3CCN(C(=O)NC(C)(C)C(=O)OC)C3)ncnc21 [Compound 12-24, methyl N-{[(3S)-3-{[9-ethyl-8-(2-methylpyrimidin-5-yl)-9H-purin-6-yl]amino}pyrrolidin-1-yl]carbonyl}-2-methylalaninate] |
| 120 | >10 | CCn1c(C2CC2)nc2c(N[C@H]3CCN(C(=O)C4CC4)C3)ncnc21 [Compound 7-10, 8-cyclopropyl-N-[(3S)-1-(cyclopropylcarbonyl)pyrrolidin-3-yl]-9-ethyl-9H-purin-6-amine] |
| 120 | >10 | CCc1nc2c(N[C@H]3CCN(C(=O)C4CC4)C3)ncnc2n1CC [Compound 7-23, N-[(3S)-1-(cyclopropylcarbonyl)pyrrolidin-3-yl]-8,9-diethyl-9H-purin-6-amine] |
| 11 | >10 | CCCN1CC(Nc2ncnc3c2nc(-c2cnn(CC)c2C)n3C)CC1=O (racemic) [Compound 14-1, 4(S and R)-{[8-(1-ethyl-5-methyl-1H-pyrazol-4-yl)-9-methyl-9H-purin-6-yl]amino}-1-propylpyrrolidin-2-one] |
| 98 | >10 | CCC(=O)N1CC[C@H](Nc2ncnc3c2nc(C2CC2)n3C)C1 [Compound 7-9, 8-cyclopropyl-9-methyl-N-[(3S)-1-propanoylpyrrolidin-3-yl]-9H-purin-6-amine] |
| 60 | >10 | CCn1c(-c2cnc(C)nc2)nc2c(N[C@H]3C[C@@H](C(N)=O)N(C(=O)C4CC4)C3)ncnc21 [Compound 15-10, (4S)-1-(cyclopropylcarbonyl)-4-{[9-ethyl-8-(2-methylpyrimidin-5-yl)-9H-purin-6-yl]amino}-L-prolinamide] |
| < 1 | >10 | CCC(=O)N1CC[C@H](Nc2ncnc3c2nc(-c2cnn(CC)c2C)n3CC(F)F)C1 [Compound 9-4, 9-(2,2-difluoroethyl)-8-(1-ethyl-5-methyl-1H-pyrazol-4-yl)-N-[(3S)-1-propanoylpyrrolidin-3-yl]-9H-purin-6-amine] |
| 21 | >10 | CCn1c(-c2cnc(C)nc2)nc2c(N[C@H]3CCN(C(=O)OCC(F)(F)F)C3)ncnc21 [Compound 13-1, 2,2,2-trifluoroethyl (3S)-3-{[9-ethyl-8-(2-methylpyrimidin-5-yl)-9H-purin-6-yl]amino}pyrrolidine-1-carboxylate] |
| 7.7 | >10 | CCn1c(-c2cnc(C)nc2)nc2c(N[C@H]3C[C@H](C(N)=O)N(c4ccccn4)C3)ncnc21 [Compound 15-11, (4S)-4-{[9-ethyl-8-(2-methylpyrimidin-5-yl)-9H-purin-6-yl]amino}-1-pyridin-2-yl-D-prolinamide] |

From US9938281B2 (Merck Sharp & Dohme Corp., priority 2012, dated 2018)
